The record followed here is PMC11287240 (RSC Advances, 2024).

One experiment deals with hBACE 1 (Homo sapiens, UniProt P56817). In words: BACE 1 FRET inhibition assay. The format is biochemical. The settings on record: human BACE 1.
Experiment [1] deals with EeAChE (Electrophorus electricus acetylcholinesterase) (Electrophorus electricus, UniProt O42275). Nature of the experiment: AChE inhibition assay. Format: biochemical, electric eel.
Where [2] appears, read: hBACE 1 IC50 (μM) ± SD, mean ± SD, n = 3, FRET assay.
The mark [3] stands for this setting: read-out: hBACE 1 IC50 (μM) ± SD, mean ± SD, n = 3, FRET assay.
Where [4] appears, read: read-out: EeAChE IC50 (μM) ± SD, mean ± SD, n = 3, AChE from electric eel, Ellman assay.

Like-named read-outs stand apart in the source and are kept apart here.

Sequence of EeAChE (Electrophorus electricus acetylcholinesterase) (O42275 24-633): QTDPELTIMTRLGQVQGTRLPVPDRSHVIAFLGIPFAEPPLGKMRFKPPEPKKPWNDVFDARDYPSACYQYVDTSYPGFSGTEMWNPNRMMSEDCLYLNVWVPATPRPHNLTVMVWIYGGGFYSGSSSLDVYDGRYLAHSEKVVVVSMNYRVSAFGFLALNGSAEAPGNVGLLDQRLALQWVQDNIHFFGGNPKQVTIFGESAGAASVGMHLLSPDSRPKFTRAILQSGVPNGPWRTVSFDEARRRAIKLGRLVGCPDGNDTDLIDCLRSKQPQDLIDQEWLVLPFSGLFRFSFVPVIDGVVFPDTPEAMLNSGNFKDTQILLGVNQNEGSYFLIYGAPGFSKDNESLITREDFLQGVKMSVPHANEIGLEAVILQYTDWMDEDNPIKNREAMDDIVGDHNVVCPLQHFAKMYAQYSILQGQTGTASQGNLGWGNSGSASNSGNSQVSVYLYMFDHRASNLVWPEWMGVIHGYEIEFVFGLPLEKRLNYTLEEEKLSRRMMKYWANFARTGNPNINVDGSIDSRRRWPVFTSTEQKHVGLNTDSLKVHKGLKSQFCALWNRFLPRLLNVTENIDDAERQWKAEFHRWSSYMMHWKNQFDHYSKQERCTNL
Sequence of hBACE 1 (P56817 46-501): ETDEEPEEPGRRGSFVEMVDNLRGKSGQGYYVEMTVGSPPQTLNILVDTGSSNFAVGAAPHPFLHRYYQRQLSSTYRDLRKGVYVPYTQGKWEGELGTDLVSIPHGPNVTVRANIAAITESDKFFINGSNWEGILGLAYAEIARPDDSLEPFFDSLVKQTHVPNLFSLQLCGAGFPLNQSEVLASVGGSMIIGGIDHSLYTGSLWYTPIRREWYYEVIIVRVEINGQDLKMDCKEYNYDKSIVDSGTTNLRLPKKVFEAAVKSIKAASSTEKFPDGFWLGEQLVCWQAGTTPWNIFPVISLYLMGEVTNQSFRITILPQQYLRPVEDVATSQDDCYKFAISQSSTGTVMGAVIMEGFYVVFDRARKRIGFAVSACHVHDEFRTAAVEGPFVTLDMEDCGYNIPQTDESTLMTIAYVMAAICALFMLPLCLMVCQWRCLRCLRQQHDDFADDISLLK

On to `[H]/N=C(/N)NN=C(/C=C/c1ccccc1C)c1cn(Cc2ccccc2)c2ccccc12` [Compound 1r, (Z)-2-((E)-1-(1-Benzyl-1H-indol-3-yl)-3-(o-tolyl)allylidene)hydrazine-1-carboximidamide], for which the IC50 was 206 ± 3.75 µM against hBACE 1 (setting [2]), 204 µM against hBACE 1 (hBACE 1 PIC50 (μM)) and 46.8 ± 1.83 µM in experiment [1].

As to `[H]/N=C(/N)NN=C(/C=C/c1ccc(F)c(F)c1)c1cn(Cc2ccc(C(C)(C)C)cc2)c2ccccc12` [Compound 3d, (Z)-2-((E)-1-(1-(4-(tert-Butyl)benzyl)-1H-indol-3-yl)-3-(3,4-difluorophenyl)allylidene)hydrazine-1-carboximidamide], the “hBACE 1 PIC50” value at hBACE 1 was determined as 4.11 µM. In addition, the results for the IC50 (on hBACE 1 (setting [3]); in experiment [1] (setting [4])) were 76.9 ± 2.38 µM and 195.9 ± 1.73 µM, respectively. Besides, the “EeAChE PIC50” value in experiment [1] (AChE from electric eel) is 3.71 µM.

For `[H]/N=C(/N)NN=C(/C=C/c1ccccc1)c1cn(Cc2ccc(F)cc2C(F)(F)F)c2ccccc12` [Compound 2d, (Z)-2-((E)-1-(1-(4-Fluoro-2-(trifluoromethyl)benzyl)-1H-indol-3-yl)-3-phenylallylidene)hydrazine-1-carboximidamide], the figures for the IC50 (against hBACE 1 (setting [2]); against hBACE 1 (hBACE 1 PIC50 (μM)); in experiment [1]) were 140.9 ± 1.06 µM, 141 µM and 169 ± 1.91 µM, respectively.

Regarding `[H]/N=C(/N)NN=C(/C=C/c1cccc(Br)c1)c1cn(Cc2ccccc2)c2ccccc12` [Compound 1h, (Z)-2-((E)-1-(1-Benzyl-1H-indol-3-yl)-3-(3-bromophenyl)allylidene)hydrazine-1-carboximidamide], the IC50 on hBACE 1 (setting [2]) was 15.1 ± 0.74 µM; against hBACE 1 (hBACE 1 PIC50 (μM)) it was 15.1 µM; in experiment [1], 66.3 ± 1.72 µM.

`[H]/N=C(/N)NN=C(/C=C/c1ccc(F)cc1F)c1cn(Cc2ccccc2)c2ccccc12` [Compound 1m, (Z)-2-((E)-1-(1-Benzyl-1H-indol-3-yl)-3-(2,4-difluorophenyl)allylidene)hydrazine-1-carboximidamide]: the “hBACE 1 PIC50” value on hBACE 1 was 4.89 µM. Also, the figures for the IC50 (at hBACE 1 (setting [3]); in experiment [1] (setting [4])) were 12.8 ± 0.5 µM and 148 ± 3.11 µM, respectively. Further, the “EeAChE PIC50” value in experiment [1] (AChE from electric eel) amounted to 3.83 µM.

As for `[H]/N=C(/N)NN=C(/C=C/c1ccc(C)cc1)c1cn(Cc2ccccc2)c2ccccc12` [Compound 1k, (Z)-2-((E)-1-(1-Benzyl-1H-indol-3-yl)-3-(p-tolyl)allylidene)hydrazine-1-carboximidamide], the IC50 was 132.1 ± 0.28 µM at hBACE 1 (setting [2]), 132 µM at hBACE 1 (hBACE 1 PIC50 (μM)) and 186 ± 2.69 µM in experiment [1].

With `[H]/N=C(/N)NN=C(/C=C/c1cccc(OC)c1)c1cn(Cc2ccccc2)c2ccccc12` [Compound 1e, (Z)-2-((E)-1-(1-Benzyl-1H-indol-3-yl)-3-(3-methoxyphenyl)allylidene)hydrazine-1-carboximidamide], the values for the IC50 (against hBACE 1 (setting [2]); against hBACE 1 (hBACE 1 PIC50 (μM)); in experiment [1]) were 117.2 ± 0.57 µM, 117 µM and 137.8 ± 0.14 µM, respectively.

On to `[H]/N=C(/N)NN=C(/C=C/c1ccc(OC)c(OC)c1)c1cn(Cc2ccccc2)c2ccccc12` [Compound 1c, (Z)-2-((E)-1-(1-Benzyl-1H-indol-3-yl)-3-(3,4-dimethoxyphenyl)allylidene)hydrazine-1-carboximidamide], for which the IC50 at hBACE 1 (setting [2]) was 59.51 ± 0.21 µM; against hBACE 1 (hBACE 1 PIC50 (μM)), 58.9 µM; in experiment [1], 77.1 ± 1.54 µM.

Turning to `[H]/N=C(/N)NN=C(/C=C/c1ccc(F)c(F)c1)c1cn(Cc2ccccc2)c2ccccc12` [Compound 1a, (Z)-2-((E)-1-(1-Benzyl-1H-indol-3-yl)-3-(3,4-difluorophenyl)allylidene)hydrazine-1-carboximidamide], the IC50 on hBACE 1 (setting [2]) is 72.11 ± 0.01 µM; on hBACE 1 (hBACE 1 PIC50 (μM)), 72.4 µM; in experiment [1], 77.2 ± 2.24 µM.

Consider `[H]/N=C(/N)NN=C(/C=C/c1ccccc1)c1cn(Cc2ccc(Cl)cc2)c2ccccc12` [Compound 2f, (Z)-2-((E)-1-(1-(4-Chlorobenzyl)-1H-indol-3-yl)-3-phenylallylidene)hydrazine-1-carboximidamide], for which the IC50 on hBACE 1 (setting [2]) is 213 ± 2.26 µM; against hBACE 1 (hBACE 1 PIC50 (μM)), 214 µM; in experiment [1], 42.8 ± 2.79 µM.

With `[H]/N=C(/N)NN=C(/C=C/c1ccc(C(C)(C)C)cc1)c1cn(Cc2ccccc2)c2ccccc12` [Compound 1b, (Z)-2-((E)-1-(1-Benzyl-1H-indol-3-yl)-3-(4-(tert-butyl)phenyl)allylidene)hydrazine-1-carboximidamide], the IC50 was 97.4 ± 1.36 µM at hBACE 1 (setting [2]), 97.7 µM against hBACE 1 (hBACE 1 PIC50 (μM)) and 42.9 ± 0.48 µM in experiment [1].

Turning to `[H]/N=C(/N)NN=C(/C=C/c1ccc(C(C)C)cc1)c1cn(Cc2cc(F)ccc2F)c2ccccc12` [Compound 3f, (Z)-2-((E)-1-(1-(2,5-Difluorobenzyl)-1H-indol-3-yl)-3-(4-isopropylphenyl)allylidene)hydrazine-1-carboximidamide], the IC50 was 82.1 ± 2.74 µM against hBACE 1 (setting [2]), 81.3 µM against hBACE 1 (hBACE 1 PIC50 (μM)) and 167 ± 2.12 µM in experiment [1].

Consider `[H]/N=C(/N)NN=C(/C=C/c1cccc(OC)c1OC)c1cn(Cc2ccccc2)c2ccccc12` [Compound 1p, (Z)-2-((E)-1-(1-Benzyl-1H-indol-3-yl)-3-(2,3-dimethoxyphenyl)allylidene)hydrazine-1-carboximidamide], for which the IC50 against hBACE 1 (setting [2]) is 134 ± 1.42 µM; against hBACE 1 (hBACE 1 PIC50 (μM)), 135 µM; in experiment [1], 48.6 ± 1.51 µM.

Turning to `[H]/N=C(/N)NN=C(/C=C/c1cccc(F)c1)c1cn(Cc2ccccc2)c2ccccc12` [Compound 1f, (Z)-2-((E)-1-(1-Benzyl-1H-indol-3-yl)-3-(3-fluorophenyl)allylidene)hydrazine-1-carboximidamide], the results for the IC50 (on hBACE 1 (setting [2]); against hBACE 1 (hBACE 1 PIC50 (μM)); in experiment [1]) were 88.59 ± 0.32 µM, 89.1 µM and 67 ± 1.95 µM, respectively.

In the case of `[H]/N=C(/N)NN=C(/C=C/c1ccc(OCc2ccccc2)cc1)c1cn(Cc2cccc(OCc3ccccc3)c2)c2ccccc12` [Compound 3i, (Z)-2-((E)-1-(1-(3-(Benzyloxy)benzyl)-1H-indol-3-yl)-3-(4-(benzyloxy)phenyl)allylidene)hydrazine-1-carboximidamide], the figures for the IC50 (on hBACE 1 (setting [2]); at hBACE 1 (hBACE 1 PIC50 (μM)); in experiment [1]) were 189 ± 1.91 µM, 191 µM and 26.99 ± 0.13 µM, respectively.
